Results taken from patent publication US11136291B2, “Antifungal compounds and uses thereof” (Dana-Farber Cancer Institute, Inc., priority 2016, dated 2021).
In brackets after ≈: the same amount, converted by molar mass. Entries after “also recorded” stand apart in the source; their conditions may differ.

How the values were obtained:
CgGal11A KIX domain = target: T1, CgGal11A KIX domain (Candida glabrata, UniProt Q6FRS9); experiment: Fluorescence polarization (FP) binding/competition assay, CgPdr1 AD30 with CgGal11A KIX; settings: calculated from measured Kd and IC50; read-out: apparent Ki
T1 construct: other: compared with iKIX1; other: GST-CgGal11A KIX 3 μM, 30 nM FITC-CgPdr1 AD30; Kd of CgPdr1 AD30 for CgGal11A KIX domain; other: FP titration, 30 nM FITC-CgPdr1 AD30; Kd of the CgPdr1 AD for the CgGal11A KIX domain; apparent Ki; fused on or other part: N-terminal His6-GST tag
T1 sequence (Q6FRS9 whole entry, looked up, the tested form may be a part): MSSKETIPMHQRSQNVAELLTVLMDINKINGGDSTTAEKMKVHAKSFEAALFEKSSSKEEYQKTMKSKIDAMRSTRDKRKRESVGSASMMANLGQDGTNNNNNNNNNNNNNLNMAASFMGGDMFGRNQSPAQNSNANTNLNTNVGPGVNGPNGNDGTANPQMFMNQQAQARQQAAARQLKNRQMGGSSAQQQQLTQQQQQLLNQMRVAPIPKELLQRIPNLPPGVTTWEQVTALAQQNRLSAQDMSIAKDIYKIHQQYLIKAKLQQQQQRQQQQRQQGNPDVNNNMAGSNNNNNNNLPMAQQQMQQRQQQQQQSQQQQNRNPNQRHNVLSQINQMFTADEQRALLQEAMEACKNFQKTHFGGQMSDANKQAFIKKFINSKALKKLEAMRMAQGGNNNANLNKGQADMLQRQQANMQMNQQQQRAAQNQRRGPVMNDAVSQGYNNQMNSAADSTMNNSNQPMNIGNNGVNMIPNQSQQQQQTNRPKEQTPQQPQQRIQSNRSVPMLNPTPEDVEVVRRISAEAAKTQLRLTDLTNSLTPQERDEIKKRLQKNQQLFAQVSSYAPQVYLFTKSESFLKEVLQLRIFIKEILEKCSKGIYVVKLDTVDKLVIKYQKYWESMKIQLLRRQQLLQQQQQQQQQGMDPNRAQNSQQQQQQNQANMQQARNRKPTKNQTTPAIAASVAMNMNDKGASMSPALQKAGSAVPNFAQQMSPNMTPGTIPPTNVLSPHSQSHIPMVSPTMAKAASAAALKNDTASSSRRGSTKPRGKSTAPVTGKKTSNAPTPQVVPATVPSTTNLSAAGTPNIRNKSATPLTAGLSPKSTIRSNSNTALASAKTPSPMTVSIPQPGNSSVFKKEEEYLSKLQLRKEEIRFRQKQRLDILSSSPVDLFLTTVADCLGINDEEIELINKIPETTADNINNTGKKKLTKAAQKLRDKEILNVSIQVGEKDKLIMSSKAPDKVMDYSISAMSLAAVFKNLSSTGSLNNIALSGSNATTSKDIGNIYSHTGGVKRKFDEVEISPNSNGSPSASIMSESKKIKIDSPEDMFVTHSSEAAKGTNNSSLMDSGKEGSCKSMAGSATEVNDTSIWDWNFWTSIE
Procedure: A fluorescein-tagged 30 amino acid C-terminal activation domain of CgPdr1 (FITC-[…] (SEQ ID NO: 1)) CgPdr1 AD30 was purchased as a synthetic peptide from Pepide2.0. The CgGal11A KIX domain was expressed as a His6-GST fusion protein and purified by affinity chromatography with Ni-NTA resin (Qiagen) and size exclusion chromatography (Sephadex 75, Pharmacia). […] For small molecule screening, fluorescein-CgPdr1 AD30 was held at a concentration of 30 nM and the GST-tagged CgGal11A KIX was at a concentration of 1 μM (above the Kd). The screen was carried out in duplicate and the volume in each well was 25 μL.
To measure the dissociation constant (Kd) of CgPdr1 AD30, FITC labeled CgPdr1 AD30 was held at a concentration of 30 nM and the GST-tagged CgGal11A KIX was prepared with concentrations ranging from 0 to 300 μM. The IC50 for iKIX-1 binding was measured with GST-tagged CgGal11A KIX held at a constant 3 μM concentration, iKIX-1 was titrated from 0 to 1000 μM and 30 nM FITC-labeled CgPdr1 AD30 was added subsequently with an HP D300 digital dispenser (Tecan Group. Maennerdorf, Switzerland). All experiments were carried out in duplicate and the s.d. is reported at each point on the plot.
The FP titration curve of the CgPdr1 AD30 was fitted to GraphPad Prisms (La Jolla, Calif., USA) One site-total binding equation (equation 1). […]

[1] = system: PDRE-dependent luciferase gene transcription; format: cell-based, Saccharomyces cerevisiae; settings: 40 μM ketoconazole
HepG2 cells = experiment: HepG2 cell viability (CellTiter-Glo); format: cell-based, Human; settings: 72 hours
Procedure: HepG2 (ATCC HB-8065) cell viability was assessed using the CellTiter-Glo assay kit (Promega). HepG2 cells (N=4,500) were seeded in each well in 100 μL MEM+10% FBS in 96-well CellBIND (Corning) plates. After 24 hours, iKIX1 was added to final concentrations indicated for a final volume of 150 μL. HepG2 cells were incubated with iKIX1 for another 72 hours before CellTiter-Glo signal was assessed with an Envision 2103 Multilabel plate reader according to the manufacturer's instructions.

Candida albicans DSY2621 = experiment: Broth dilution MIC
Procedure: (§1) Antifungal susceptibility testing was carried out using broth dilution assays which examined effects of two-fold dilutions of compounds on cellular growth. The minimum inhibitory concentration (MIC) was defined as the drug concentration at which the optical density was equal to or decreased more than 50% from that of the drug-free culture.

Candida glabrata DSY562 = experiment: Broth dilution MIC; settings: Nakaseomyces glabratus
Procedure: as §1

[2] = system: azole-activated and Pdr1-dependent genes; experiment: RNA-Seq; settings: 10 μM iKIX1 with 40 μM ketoconazole
Procedure: Cells were grown in YPD at 30° C. with shaking overnight (24 hours) then washed twice in 2× volume of Milli-Q water before being resuspended in YP to an OD600 of 0.8. Cells were grown with shaking overnight (˜16 hours) before splitting and treatment with vehicle (DMSO) or 10 μM iKIX1. Cells were grown with shaking another 8 hours before harvest of non-azole induced samples. Remaining cultures were induced to a final concentration of 40 μM ketoconazole and harvested after 15 minutes by centrifugation at 4,000 rpm for 4 minutes at 4° C. Media was aspirated and cells were snap frozen on dry ice. RNA isolation was performed as previously described (see, e.g., Martin R, Moran G P, Jacobsen I D, Heyken A, Domey J, Sullivan D J, et al. The Candida albicans-specific gene EED1 encodes a key regulator of hyphal extension. PLoS One.6(4):e18394. PMCID: 3075580); RNA was then DNase treated using recombinant DNasel. […] Sequencing was carried out on Illumina HiSeq 2500, resulting in approximately 17.68 million of 50 bp paired-end reads per sample. STAR aligner was used to map sequencing reads to transcripts in the reference genomes (S288C for Saccharomyces cerevisiae and draft genome from isolate DSY562 for Candida glabrata) (see, e.g., Dobin A, Davis C A, Schlesinger F, Drenkow J, Zaleski C, Jha S, et al. STAR: ultrafast universal RNA-seq aligner. Bioinformatics.29(1):15-21. PMCID: 3530905). […]

[3] = system: Candida parapsilosis DSY473; experiment: Broth dilution MIC; settings: ATCC22019
Procedure: as §1

S. cerevisiae = experiment: Cell growth inhibition screen with 5 μM ketoconazole; settings: in the presence of 5 μM ketoconazole
Procedure: S. cerevisiae SEY6210 wild-type strains were grown in YPD (U % yeast extract, 2% bacto peptone, 2% dextrose) at 30° C. with shaking overnight until saturation. The next day, cultures were inoculated to an OD600 of 0.0007 and grown for 17 hours, to an OD600˜0.5, 384-well plates were set up in duplicate with either YPD alone or with YPD containing a final concentration of 5 μM ketoconazole. 384-well plates contained 5 two-fold dilutions of each compound, corresponding to a final concentration range of 20 μg/mL to 1.25 μg/mL. Wells were inoculated with cells to a final OD600 of 0.00025 in YPD.

[4] = system: Candida tropicalis DSY472; experiment: Broth dilution MIC; settings: ATCC75
Procedure: as §1

SREBP-target genes = experiment: Transcription of SREBP-target genes in HepG2 cells; format: cell-based, Human; settings: concentrations up to 100 μM, 24 hours
Procedure: For transcription assays, HepG2 cells were seeded in MEM+10% FBS on 12-well poly-D-lysine-coated plates at a concentration of 175,000 cells per mL. After cells attached (4 hours), media was aspirated and iKIX1 was added in fresh MEM+10% FBS to final concentrations indicated. Cells were treated with iKIX1 for 24 hours before RNA was isolated using Trizol according to manufacturer's instructions. Quantitative real-time RT-PCR was carried out as described above.

[5] = system: Saccharomyces cerevisiae DSY2094; experiment: Broth dilution MIC
Procedure: as §1

C. glabrata = experiment: Mouse disseminated fungal burden model; format: in vivo; settings: for fungal burden (CFU/g kidney): Cgpdr1 null strain (SFY93)

N#CCC(=O)NNC(=S)Nc1ccc(Cl)c(Cl)c1 [iKIX1, 2-(2-Cyanoacetyl)-N-(3,4-dichlorophenyl)hydrazinecarbothioamide]
Ki (CgGal11A KIX domain): 18.1 µM
ketoconazole-induced luciferase activity (in words) [1]: able to block this induction in a concentration-dependent manner; also recorded: inhibits ketoconazole (KET)-induced upregulation of luciferase activity in a dose-responsive manner
concentrations that inhibit viability of HepG2 cells (HepG2 cells): > 50 µM
IC50 (HepG2 cells; Homo sapiens, HepG2, read-out: IC50, toxicity in HepG2 cells): ~100 µM
MIC (Candida albicans DSY2621): 12.5 µM (≈ 3.79 µg/mL)
MIC (Candida glabrata DSY562): 12.5 µM (≈ 3.79 µg/mL)
expression of azole-activated and Pdr1-dependent genes [2]: strongly blunted expression of many azole-activated and Pdr1-dependent genes
MIC [3]: 25 µM (≈ 7.58 µg/mL)
cell growth (S. cerevisiae): inhibits cell growth in a concentration-dependent manner
MIC [4]: 6.25 µM (≈ 1.89 µg/mL)
effect on transcription of SREBP-target genes (SREBP-target genes): no effect
MIC [5]: 12.5 µM (≈ 3.79 µg/mL)
reductions in fungal burdens in the kidney and spleen (C. glabrata; CgPDR1^L280F strain, iKIX1 100 mg/kg with 100 mg/kg fluconazole, i.p. once daily, 7 days, P<0.0001): ~10 fold
fungal burden (CFU/g kidney) (C. glabrata; iKIX1 alone, 100 mg/kg/day): significantly reduces fungal burden; also recorded: more sensitive to iKIX1 alone
fungal burden (CFU/g kidney) (C. glabrata; low iKIX1 (10 mg/kg/day) added to fluconazole, 10 mg/kg/day): did not confer additional reductions in CFU/g kidney; also recorded: did not further reduce fungal burden
tissue fungal burden in the kidney and spleen (C. glabrata; […], iKIX1 100 mg/kg co-treatment with 100 mg/kg fluconazole): did not result in further reductions
fungal tissue burdens in the spleen or kidney (C. glabrata; […], iKIX1 combination with fluconazole): reduces fungal tissue burdens in the spleen or kidney
reductions in fungal burdens in both organs (kidney, spleen) (C. glabrata; mouse, in vivo, 25 mg/kg): ~10 fold
